According to patent US12398154B2, “Azaquinazoline pan-KRas inhibitors” (Mirati Therapeutics, Inc., priority 2020, dated 2025):

Key:
KRas G12V = KRas G12V (Homo sapiens, UniProt P01116, G12V); experiment: biochemical;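 note: KRas binding measured by TR-FRET displacement at room temperature, IC50 fitted from percent of control values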
Method: (§5) The ability of a compound to bind to KRas was measured using a TR-FRET displacement assay. […] After a 60-minute incubation at room temperature, the reaction was measured using a BMG LABTECH CLARIO star Plus via TR-FRET. […] The POC values were fit to a 4-parameter IC50 equation and the IC50 value reported.

pERK in MKN1 cells = experiment: Inhibition of KRas phosphorylation of ERK (Cisbio HTRF pERK assay); settings: Homo sapiens, MKN-1, 3 h, read-out: Inhibition (HTRF IC50) of KRas-mediated Phosphorylation of ERK, MKN1
pERK in PSN1 cells = experiment: as above; settings: Homo sapiens, PSN1, 3 h, read-out: Inhibition (HTRF IC50) of KRas-mediated Phosphorylation of ERK, PSN1
KRas G12D = KRas G12D (Homo sapiens, UniProt P01116, G12D); experiment: biochemical;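 note: TR-FRET displacement binding assay on KRas, read after a one-hour incubation at room temperature, IC50 fitted from percent-of-control values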
Method: as §5

KRas G12R = KRas G12R (Homo sapiens, UniProt P01116, G12R); experiment: biochemical;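 note: TR-FRET displacement assay of compound binding to KRas, read after one hour at room temperature, potency from a four-parameter fit of percent-of-control values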
Method: as §5

[1] = test system: phospho-ERK in NCI-H460 (Q61H) cells; experiment: Inhibition of KRas-mediated phosphorylation of ERK (in-cell western); assay type: cell-based; settings: Homo sapiens, NCI-H460, 3 h, 3 hours compound, phospho-ERK normalized to GAPDH
Method: (§1) Diluted compounds were then added in a final concentration of 0.5% DMSO. After 3 hours, 50 μL of 4.0% formaldehyde was added and the plates incubated at room temperature for 20 minutes. The plates were then dumped and permeabilized with 150 μL of ice cold 100% methanol for 10 minutes.
(§2) The amount of phospho-ERK was determined using an antibody specific for the phosphorylated form of ERK and compared to the amount of GAPDH. […] The plates were incubated overnight at 4° C. The plates were washed 3× with 150 uL PBS+0.1% Tween 20.
(§3) The plates were washed 3× with 150 uL PBS+0.1% Tween 20. Plates were imaged dry on a Li-COR Odyssey CLX plate reader.
(§4) The phospho-ERK (Thr202/Tyr204) signal was normalized to the GAPDH signal for each well and percent of DMSO control values were calculated. IC50 values were generated using a 4-parameter fit of the dose response curve.

[2] = test system: phospho-ERK in AsPC-1 (G12D) cells; experiment: as above; assay type: cell-based; settings: Homo sapiens, ASPC1, 3 h, 3 hours compound, phospho-ERK normalized to GAPDH
Method: as §1, §2, §3, §4

[3] = test system: phospho-ERK in NCI-H727 (G12V) cells; experiment: as above; assay type: cell-based; settings: Homo sapiens, NCI-H727, 3 h, 3 hours compound, phospho-ERK normalized to GAPDH
Method: as §1, §2, §3, §4

KRas G12C = KRas G12C (Homo sapiens, UniProt P01116, G12C); experiment: biochemical;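 note: binding to KRas assessed by TR-FRET displacement after one hour incubation at room temperature, potency fitted from percent-of-control values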
Method: as §5

pERK in H460 cells = experiment: Inhibition of KRas phosphorylation of ERK (Cisbio HTRF pERK assay); settings: Homo sapiens, NCI-H460, read-out: Inhibition (HTRF IC50) of KRas-mediated Phosphorylation of ERK, H460
KRas G12A = KRas G12A (Homo sapiens, UniProt P01116, G12A); experiment: biochemical;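 note: binding to KRas measured by TR-FRET displacement after one hour at room temperature, IC50 from a four-parameter fit of percent-of-control values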
Method: as §5

KRas WT = KRas WT (Homo sapiens, UniProt P01116); experiment: biochemical;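 note: binding to KRas read as TR-FRET displacement after a one-hour room-temperature incubation, IC50 derived from percent-of-control values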
Method: as §5

pERK in H727 cells = experiment: Inhibition of KRas phosphorylation of ERK (Cisbio HTRF pERK assay); settings: Homo sapiens, NCI-H727, read-out: Inhibition (HTRF IC50) of KRas-mediated Phosphorylation of ERK, H727
pERK in HCT116 cells = experiment: as above; settings: Homo sapiens, HCT-116, read-out: Inhibition (HTRF IC50) of KRas-mediated Phosphorylation of ERK, HCT116
pERK in ASPC1 cells = experiment: as above; settings: Homo sapiens, ASPC1, read-out: Inhibition (HTRF IC50) of KRas-mediated Phosphorylation of ERK, AsPC-1
KRas G12S = KRas G12S (Homo sapiens, UniProt P01116, G12S); experiment: biochemical;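 note: TR-FRET displacement binding to KRas, read after one hour incubation at room temperature, IC50 from four-parameter fit of percent of control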
Sequence of KRas G12S (P01116 1-169 isoform P01116-2 G12S): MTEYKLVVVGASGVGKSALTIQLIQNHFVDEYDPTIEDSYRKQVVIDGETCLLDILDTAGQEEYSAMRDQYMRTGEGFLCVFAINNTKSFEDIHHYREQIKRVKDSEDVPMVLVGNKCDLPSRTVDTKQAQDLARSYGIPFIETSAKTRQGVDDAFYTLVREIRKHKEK
Method: as §5

Sequence of KRas G12D (P01116 1-169 isoform P01116-2 G12D): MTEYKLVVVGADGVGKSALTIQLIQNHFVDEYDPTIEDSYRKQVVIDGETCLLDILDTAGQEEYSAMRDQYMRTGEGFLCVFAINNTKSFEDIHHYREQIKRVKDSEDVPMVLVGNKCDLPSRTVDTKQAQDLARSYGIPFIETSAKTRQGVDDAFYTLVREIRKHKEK
Sequence of KRas G12V (P01116 1-169 isoform P01116-2 G12V): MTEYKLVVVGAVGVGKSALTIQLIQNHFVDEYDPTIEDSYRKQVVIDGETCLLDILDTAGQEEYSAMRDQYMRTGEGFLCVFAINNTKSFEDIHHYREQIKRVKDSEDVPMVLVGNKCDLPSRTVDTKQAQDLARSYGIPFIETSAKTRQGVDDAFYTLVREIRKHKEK
Sequence of KRas G12R (P01116 1-169 isoform P01116-2 G12R): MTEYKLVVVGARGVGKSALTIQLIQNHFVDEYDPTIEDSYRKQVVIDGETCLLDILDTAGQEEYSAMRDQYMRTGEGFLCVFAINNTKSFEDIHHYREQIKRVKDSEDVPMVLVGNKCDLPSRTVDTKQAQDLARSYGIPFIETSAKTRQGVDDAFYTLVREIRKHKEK
Sequence of KRas G12C (P01116 1-169 isoform P01116-2 G12C): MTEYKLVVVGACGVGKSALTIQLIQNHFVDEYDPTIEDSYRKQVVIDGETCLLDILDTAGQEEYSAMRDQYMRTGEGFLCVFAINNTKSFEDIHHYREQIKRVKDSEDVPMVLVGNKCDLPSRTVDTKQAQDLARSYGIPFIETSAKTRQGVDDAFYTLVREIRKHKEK
Sequence of KRas G12A (P01116 1-169 isoform P01116-2 G12A): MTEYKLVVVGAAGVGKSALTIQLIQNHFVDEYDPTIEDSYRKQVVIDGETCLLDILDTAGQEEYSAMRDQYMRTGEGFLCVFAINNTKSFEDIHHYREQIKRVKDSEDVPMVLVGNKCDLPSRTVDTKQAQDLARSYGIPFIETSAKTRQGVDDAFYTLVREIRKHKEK
Sequence of KRas WT (P01116 1-169 isoform P01116-2): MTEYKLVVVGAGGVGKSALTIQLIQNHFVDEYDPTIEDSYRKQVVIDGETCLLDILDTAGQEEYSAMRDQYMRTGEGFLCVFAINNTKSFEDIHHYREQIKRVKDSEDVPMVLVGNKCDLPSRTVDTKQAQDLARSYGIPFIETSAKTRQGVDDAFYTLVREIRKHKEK

| IC50 (KRas G12V) [nM] | IC50 (pERK in MKN1 cells) [nM] | IC50 (pERK in PSN1 cells) [nM] | IC50 (KRas G12D) [nM] | IC50 (KRas G12R) [nM] | IC50 (KRas G12C) [nM] | IC50 (pERK in H460 cells) [nM] | IC50 (KRas G12A) [nM] | IC50 (KRas WT) [nM] | IC50 (pERK in H727 cells) [nM] | IC50 (pERK in HCT116 cells) [nM] | IC50 (pERK in ASPC1 cells) [nM] | IC50 (KRas G12S) [nM] | SMILES | IC50 [1] [nM] | IC50 [2] [nM] | IC50 [3] [nM] |
| --- | --- | --- | --- | --- | --- | --- | --- | --- | --- | --- | --- | --- | --- | --- | --- | --- |
| 5 | 44 | 2880 | 7 | 6 | – | – | – | – | – | – | – | – | C#Cc1c(F)ccc2cc(O)cc(-c3ncc4c(N5CCOC[C@](C)(O)C5)nc(OC[C@@]56CCCN5C[C@H](F)C6)nc4c3F)c12 (single isomer, unassigned) [Example 386] | 299 | 1180 | 1020 |
| ≤ 2 | 6 | 2880 | 3 | ≤ 2 | – | – | – | – | – | – | – | – | Oc1cc(-c2ncc3c(N4CCC[C@]5(C4)C[C@H](O)C5)nc(OC[C@@]45CCCN4C[C@H](F)C5)nc3c2F)c2c(F)c(F)ccc2c1 (single isomer, unassigned) [Example 441] | 70 | 119 | 139 |
| ≤ 2 | 9 | 2850 | ≤ 2 | ≤ 2 | – | – | – | – | – | – | – | – | Oc1cc(-c2ncc3c(N4CCC[C@]5(C4)C[C@@H](O)C5)nc(OC[C@@]45CCCN4C[C@H](F)C5)nc3c2F)c2c(F)c(F)ccc2c1 (single isomer, unassigned) [Example 442] | 124 | 134 | 234 |
| ≤ 2 | 13 | 3340 | ≤ 2 | 3 | – | – | – | – | – | – | – | – | C#Cc1c(F)ccc2cc(O)cc(-c3ncc4c(N5CCC[C@](C)(O)C5)nc(OC[C@@]56CCCN5C[C@H](F)C6)nc4c3F)c12 [Example 10] | – | 297 | – |
| 3 | 26 | ≥ 10000 | 3 | 4 | – | – | – | – | – | – | – | – | CCc1c(F)ccc2cc(O)cc(-c3ncc4c(N5CCC[C@@](C)(O)C5)nc(OC[C@@H]5C[C@@H](OC(=O)NC)CN5C)nc4c3F)c12 [Example 12, (3R,5S)-5-(((7-(8-ethyl-7-fluoro-3-hydroxy)naphthalen-1-yl)-8-fluoro-4-((R)-3-hydroxy-3-methylpiperidin-1-yl)pyrido[4,3-d]pyrimidin-2-yl)oxy)methyl)-1-methylpyrrolidin-3-yl methylcarbamate] | – | 497 | – |
| – | 10 | 6960 | – | – | – | – | – | – | – | – | – | – | CCc1c(F)ccc2cc(O)cc(-c3ncc4c(N5CC[C@H](F)[C@@H](O)C5)nc(OC[C@@]56CCCN5C[C@H](F)C6)nc4c3F)c12 [Example 179] | 274 | 785 | 675 |
| – | 5 | 6900 | – | – | – | – | – | – | – | – | – | – | CCc1c(F)ccc2cc(O)cc(-c3ncc4c(N5C[C@H](O)CC[C@H]5C)nc(OC[C@@]56CCCN5C[C@H](F)C6)nc4c3F)c12 [Example 182] | 157 | 547 | 355 |
| – | 2 | 4230 | – | – | – | – | – | – | – | – | – | – | CCc1c(F)ccc2cc(O)cc(-c3ncc4c(N5CCCC(O)(C(F)(F)F)C5)nc(OC[C@@]56CCCN5C[C@H](F)C6)nc4c3F)c12 (some centres unmarked) [Example 183] | 137 | 399 | 720 |
| – | 108 | ≥ 10000 | – | – | – | – | – | – | – | – | – | – | CCc1c(F)ccc2cc(O)cc(-c3ncc4c(N5C[C@H](O)CC[C@@H]5C)nc(OC[C@@]56CCCN5C[C@H](F)C6)nc4c3F)c12 [Example 186] | 592 | 1590 | 1060 |
| ≤ 2 | 11 | 4990 | – | ≤ 2 | – | – | – | – | – | – | – | – | CCc1c(F)ccc2cc(O)cc(-c3ncc4c(N5CC(O)CC(F)(F)C5)nc(OC[C@@]56CCCN5C[C@H](F)C6)nc4c3F)c12 (some centres unmarked) [Example 190] | 62 | 189 | 272 |
| 6 | – | – | 25 | 14 | – | – | – | – | – | – | – | – | CCc1c(F)ccc2cc(O)cc(-c3ncc4c(N5CCC[C@@]6(CNC(=O)C6)C5)nc(OC[C@]56CCCN5C[C@@H](O)C6)nc4c3F)c12 [Example 305, (R)-7-(7-(8-ethyl-7-fluoro-3-hydroxynaphthalen-1-yl)-8-fluoro-2-(((2S,7aR)-2-hydroxytetrahydro-1H-pyrrolizin-7a(5H)-yl)methoxy)pyrido[4,3-d]pyrimidin-4-yl)-2,7-diazaspiro[4.5]decan-3-one] | ≥ 10000 | ≥ 10000 | ≥ 10000 |
| – | 57 | 6800 | – | – | – | – | – | – | – | – | – | – | CCc1c(F)ccc2cc(O)cc(-c3ncc4c(N5CCCC(CO)C5)nc(OC[C@@]56CCCN5C[C@H](F)C6)nc4c3F)c12 (stereo partly drawn) [Example 306, 5-ethyl-6-fluoro-4-(8-fluoro-2-(((2R,7aS)-2-fluorohexahydro-1H-pyrrolizin-7a-yl)methoxy)-4-(3-(hydroxymethyl)piperidin-1-yl)pyrido[4,3-d]pyrimidin-7-yl)naphthalen-2-ol] | 306 | 405 | 461 |
| ≤ 2 | – | – | 8 | ≤ 2 | – | – | – | – | – | – | – | – | CCc1c(F)ccc2cc(O)cc(-c3ncc4c(NC5CN(C(N)=O)C5)nc(OC[C@@]56CCCN5C[C@H](F)C6)nc4c3F)c12 [Example 310, 3-((7-(8-ethyl-7-fluoro-3-hydroxynaphthalen-1-yl)-8-fluoro-2-(((2R,7aS)-2-fluorohexahydro-1H-pyrrolizin-7a-yl)methoxy)pyrido[4,3-d]pyrimidin-4-yl)amino)azetidine-1-carboxamide] | 3790 | ≥ 10000 | 3370 |
| ≤ 2 | 10 | 5180 | 3 | 3 | ≤ 2 | 100 | ≤ 2 | ≤ 2 | 82 | 65 | 115 | ≤ 2 | CCc1c(F)ccc2cc(O)cc(-c3ncc4c(N5C[C@@H]6C[C@H](C5)[C@H](O)C6)nc(OCC5(CN6CCCC6)CC5)nc4c3F)c12 [Example 320, (1R,5R,6R)-3-(7-(8-ethyl-7-fluoro-3-hydroxynaphthalen-1-yl)-8-fluoro-2-((1-(pyrrolidin-1-ylmethyl)cyclopropyl)methoxy)pyrido[4,3-d]pyrimidin-4-yl)-3-azabicyclo[3,2,1]octan-6-ol] | – | – | – |
| 6 | – | – | 31 | 10 | – | – | – | – | – | – | – | – | OCC1COCCN(c2nc(OCC34CCCN3CCC4)nc3c(F)c(-c4cc(O)cc5ccc(F)c(F)c45)ncc23)C1 (centres unmarked) [Example 457, 5,6-difluoro-4-(8-fluoro-2-((hexahydro-1H-pyrrolizin-7a-yl)methoxy)-4-(6-(hydroxymethyl)-1,4-oxazepan-4-yl)pyrido[4,3-d]pyrimidin-7-yl)naphthalen-2-ol] | 9410 | – | 3950 |
| 8 | – | – | 11 | 14 | 9 | – | 8 | 10 | – | – | – | 9 | CCc1cccc2cc3[nH]ncc3c(-c3ncc4c(N5CCC[C@@](C)(O)C5)nc(OC[C@@]56CCCN5C[C@H](F)C6)nc4c3F)c12 [Example 473, (3R)-1-(7-(5-ethyl-1H-benzo[f]indazol-4-yl)-8-fluoro-2-(((2R,7aS)-2-fluorohexahydro-1H-pyrrolizin-7a-yl)methoxy)pyrido[4,3-d]pyrimidin-4-yl)-3-methylpiperidin-3-ol] | 325 | – | 320 |
